Assays:
[1] = Pharmacokinetic study in rats, individual prodrug IV or SC; type: in vivo, Sprague-Dawley rats; settings: rat, dose 8.5 mg/kg
Experimental: For comparison, a rat pharmacokinetics study with L-dopa and carbidopa was conducted to help assess the in vivo conversion of the prodrugs. The study design and measured exposures of L-dopa and carbidopa are summarized in Tables 16-A and 16-B, respectively. In brief, groups of three male Sprague-Dawley rats were given (1) L-dopa and carbidopa in aqueous solution, or (2) the individual prodrug in aqueuous solution intravenously or subcutaneously. Blood samples were collected at multiple time points over 24 hours into a collection tube containing NaAsO4, EDTA, and ascorbic acid. […] The supernatants were subjected to LC-MS analysis for quantitation of prodrug, L-dopa or carbidopa.

[2] = In vitro bioconversion study, liver S9 fraction (rat); type: in vitro ADME; settings: rat liver S9 fraction 1 mg/mL
Experimental: (§1) The in vitro bioconversion of the L-dopa phosphate prodrugs to L-dopa and the carbidopa phosphate prodrugs to carbidopa was evaluated in several studies. In brief, the L-dopa and carbidopa phosphate prodrugs (2.5 ug/mL) were incubated with tissue homogenate or fractions from rats, mini-pigs, or human, including blood, skin homogenate (3 mg/mL), liver microsomes (1 mg/mL), liver S9 fraction (1 mg/mL), kidney S9 fraction (1 mg/mL), and intestine S9 fractions (1 mg/mL). The reaction mixtures were incubated at 37° C. for 5 to 6 time points within 1 to 2 hours. At the end of each time point, the reaction mixtures were quenched by 2 to 3 volumes of 5% trichloroacetic acid in water. After quenching, the mixtures were centrifuged at 3000 rpm for 20 minutes, and the supernatants were analyzed by LC-MS for quantitation of the prodrug, L-dopa or carbidopa. The in vitro bioconversion was assessed by monitoring both time-dependent depletion of the prodrug and the formation of the corresponding L-dopa or carbidopa.

[3] = In vitro bioconversion study, human liver microsomes; type: in vitro ADME; settings: human liver microsomes 1 mg/mL
Experimental: as §1

[4] = In vitro bioconversion study, skin homogenates (mini-pig); type: in vitro ADME
Experimental: (§2) In brief, the L-dopa and carbidopa phosphate prodrugs (2.5 ug/mL) were incubated with tissue homogenate or fractions from rats, mini-pigs, or human, including blood, skin homogenate (3 mg/mL), liver microsomes (1 mg/mL), liver S9 fraction (1 mg/mL), kidney S9 fraction (1 mg/mL), and intestine S9 fractions (1 mg/mL). The reaction mixtures were incubated at 37° C. for 5 to 6 time points within 1 to 2 hours. At the end of each time point, the reaction mixtures were quenched by 2 to 3 volumes of 5% trichloroacetic acid in water. After quenching, the mixtures were centrifuged at 3000 rpm for 20 minutes, and the supernatants were analyzed by LC-MS for quantitation of the prodrug, L-dopa or carbidopa. The in vitro bioconversion was assessed by monitoring both time-dependent depletion of the prodrug and the formation of the corresponding L-dopa or carbidopa.

[5] = In vitro bioconversion study, blood (rat); type: in vitro ADME
Experimental: as §2

[6] = In vitro bioconversion study, blood (human); type: in vitro ADME
Experimental: as §2

[7] = In vitro bioconversion study, liver S9 fraction (human); type: in vitro ADME; settings: human liver S9 fraction 1 mg/mL
Experimental: as §1

[8] = Solubility study in water by visual assessment; type: physicochemical; settings: thermodynamic from solid; water, ambient, pH 5.5; amorphous
Experimental: The L-dopa phosphate prodrugs and the carbidopa phosphate prodrugs were evaluated in a solubility study. The solubility values of the phosphate prodrugs in water under ambient conditions were determined by visual assessment. Table 13-A reports the results of the study, including the measured values for L-dopa and carbidopa.

[9] = Local tolerability, single SC bolus in rats; type: in vivo; settings: concentrations up to 125 mg/mL
[10] = In vitro bioconversion study, skin homogenates (human); type: in vitro ADME
Experimental: as §1

[11] = In vitro bioconversion study, liver S9 fraction (mini-pig); type: in vitro ADME; settings: mini-pig liver S9 fraction 1 mg/mL
Experimental: as §1

[12] = In vitro bioconversion study, intestinal S9 fractions (human); type: in vitro ADME
Experimental: as §1

[13] = In vitro bioconversion study, blood (mini-pig); type: in vitro ADME
Experimental: as §2

[14] = In vitro bioconversion study, intestinal S9 fractions (rat); type: in vitro ADME
Experimental: as §1

[15] = In vitro bioconversion study, skin homogenates (rat); type: in vitro ADME
Experimental: as §2

[16] = In vitro bioconversion study, kidney S9 fraction (rat); type: in vitro ADME; settings: rat kidney S9 fraction 1 mg/mL
Experimental: as §1

[17] = 1-day stability study, diphosphate combination solution; type: physicochemical; settings: combined solution L-dopa 3′,4′-diphosphate 35 mg/mL + carbidopa 3′,4′-diphosphate 8.7 mg/mL, pH 6.2, room temperature, nitrogen purged
Experimental: In addition, a solution combining the diphosphates of each compound (L-dopa 3′, 4′-diphosphate at 35 mg/mL and carbidopa 3′, 4′-diphosphate at 8.7 mg/mL) was monitored over one day at room temperature. This sample was purged with nitrogen to remove oxygen.

[18] = 1-day stability study of individual prodrugs in aqueous solution; type: physicochemical; settings: aqueous solution 80 μg/mL, ambient storage, pH 7.0
Experimental: The L-dopa phosphate prodrugs and the carbidopa phosphate prodrugs were evaluated in a stability study.

[19] = In vitro bioconversion study, kidney S9 fraction (human); type: in vitro ADME; settings: human kidney S9 fraction 1 mg/mL
Experimental: as §1

## N[C@@H](Cc1ccc(OP(=O)(O)O)c(OP(=O)(O)O)c1)C(=O)O [L-dopa 3′,4′-diphosphate]
[1]; IV
  Estimated Conversion % (Based on L-dopa AUC): >100%
[1]; SC
  Estimated Conversion % (Based on L-dopa AUC): >100%
[2]
  stability and L-dopa or carbidopa formation: stable without formation of L-dopa or carbidopa observed
[3]
  stability and L-dopa or carbidopa formation: stable without formation of L-dopa or carbidopa observed
[4]; mini-pig skin homogenate
  L-Dopa or Carbidopa Formation: No
[4]; mini-pig skin homogenate 3 mg/mL, 37° C.
  T1/2: stable
[5]
  L-Dopa or Carbidopa Formation: Yes
[5]; prodrug 2.5 ug/mL, 37° C.
  half-life at 2.5 ug/mL: 6 min
[6]
  L-Dopa or Carbidopa Formation: Yes
[6]; prodrug 2.5 ug/mL, 37° C.
  half-life at 2.5 ug/mL: 2.3 h
[7]
  stability and L-dopa or carbidopa formation: stable without formation of L-dopa or carbidopa observed
[8]
  solubility: > 330 mg/mL
[9]
  local intolerance (clinical signs, microscopic findings): no adverse clinical signs or microscopic findings indicative of local intolerance
[10]; human skin homogenate
  L-Dopa or Carbidopa Formation: No
[10]; human skin homogenate 3 mg/mL, 37° C.
  T1/2: stable
[11]
  stability and L-dopa or carbidopa formation: stable without formation of L-dopa or carbidopa observed
[12]; human intestinal S9 fraction
  L-Dopa or Carbidopa Formation: Yes
[12]; human intestinal S9 fraction 1 mg/mL
  half-life at 2.5 ug/mL: 1.53 h
[13]
  L-Dopa or Carbidopa Formation: Yes
[13]; minipig, prodrug 2.5 ug/mL, 37° C.
  half-life at 2.5 ug/mL: 2.08 h
[14]; rat intestinal S9 fraction
  L-Dopa or Carbidopa Formation: Yes
[14]; rat intestinal S9 fraction 1 mg/mL
  half-life at 2.5 ug/mL: 0.903 h
[15]; rat skin homogenate
  L-Dopa or Carbidopa Formation: No
[15]; rat skin homogenate 3 mg/mL, 37° C.
  T1/2: stable
[16]
  stability and L-dopa or carbidopa formation: stable without formation of L-dopa or carbidopa observed
[17]
  % Remaining After One Day: >99%
[18]
  % Remaining After One Day: >99%
[19]
  stability and L-dopa or carbidopa formation: stable without formation of L-dopa or carbidopa observed
